One assay addresses T1, CDK8/CycC (Homo sapiens, UniProt P49336).
T1 construct: purchased Carna Biosciences
The assay is described as follows: CDK8 inhibitory activity (TR-FRET, Kinase Tracer-236 displacement). It is filed as binding. The note with it: 1 μM of the test compound; read-out: Percent inhibition of CDK8 activity (%). The procedure, abridged: (§1)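 Binding assay measuring displacement of Kinase Tracer-236 (60 nM in the added mix) by compound, using Eu-cryptate anti-GST antibody with CDK8/CycC (84 ng/mL) or CDC2L6/CycC (87 ng/mL) solutions. After 1 h at room temperature, TR-FRET read at 615 and 665 nm (excitation 320 nm).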

Assay [1] has as its system human multiple myeloma RPMI8226 cells. As to the kind of experiment: Inhibitory activity against human multiple myeloma RPMI8226 cell growth (CellTiter-Glo). Format: cell-based. Particulars: Homo sapiens, RPMI-8226, 192 h, 1 μM of the test compound, cultured for 8 days; read-out: Percent inhibition of RPMI8226 cell growth (%). The procedure, abridged: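 RPMI8226 cells (300/well) cultured 1 day at 37 °C, 5% CO2, then given compound at 1 μM for 8 days. ATP luminescence (CellTiter-Glo) read; percent inhibition relative to 0.1% DMSO wells.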
Background: Cellular ATP, detected with luciferase, serves as a proxy for viable cell number.

For the next assay, the target named is T2, CDK19 (CDC2L6/CycC) (Homo sapiens, UniProt Q9BWU1).
T2 construct: purchased Carna Biosciences
T2 sequence (Q9BWU1 whole entry): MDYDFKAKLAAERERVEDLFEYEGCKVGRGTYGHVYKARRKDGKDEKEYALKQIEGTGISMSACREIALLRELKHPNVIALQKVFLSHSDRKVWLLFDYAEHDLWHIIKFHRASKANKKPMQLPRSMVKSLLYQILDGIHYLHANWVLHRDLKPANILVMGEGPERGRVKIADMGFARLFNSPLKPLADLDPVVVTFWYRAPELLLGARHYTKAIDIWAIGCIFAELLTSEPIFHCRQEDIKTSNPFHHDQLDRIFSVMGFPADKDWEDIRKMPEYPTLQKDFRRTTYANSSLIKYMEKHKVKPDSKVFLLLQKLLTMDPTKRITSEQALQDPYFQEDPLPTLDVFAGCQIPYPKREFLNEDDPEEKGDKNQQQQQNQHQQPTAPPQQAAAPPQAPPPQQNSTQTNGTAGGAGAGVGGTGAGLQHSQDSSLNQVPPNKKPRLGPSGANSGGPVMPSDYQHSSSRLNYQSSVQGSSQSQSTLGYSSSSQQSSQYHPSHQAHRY
T2 sequence (P24863 whole entry partner): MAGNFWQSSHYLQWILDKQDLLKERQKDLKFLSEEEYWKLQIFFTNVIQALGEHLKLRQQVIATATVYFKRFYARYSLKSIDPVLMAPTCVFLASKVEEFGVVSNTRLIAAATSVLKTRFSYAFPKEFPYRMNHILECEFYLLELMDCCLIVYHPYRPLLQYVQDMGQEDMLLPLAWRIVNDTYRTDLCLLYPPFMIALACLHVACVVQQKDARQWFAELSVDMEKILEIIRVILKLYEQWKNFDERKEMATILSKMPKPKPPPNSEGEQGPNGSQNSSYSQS
The assay is described as follows: CDK19 inhibitory activity (TR-FRET, Kinase Tracer-236 displacement). It is filed as binding. The note with it: 1 μM of the test compound; read-out: Percent inhibition of CDK19 activity (%). The procedure, abridged:
as §1
A general note: In TR-FRET formats the signal depends on donor and acceptor labels being close together.

Assay [2] deals with SW480 human colorectal cancer cells. The assay is described as follows: Antitumor efficacy in mice bearing SW480 human colorectal cancer xenograft. Format: in vivo, BALB/c female nude mice. Particulars: Mus musculus, SW480, 336 h, oral, 1 dose per day, 14 days, percent tumor growth relative to control group, read-out: T/C (%). The protocol: The compound of the present invention was evaluated for its antitumor efficacy in mice bearing cancer derived from SW480 human colorectal cancer cells by the following method.
SW480 human colorectal cancer cells were transplanted into 6- to 7-week-old BALB/c female nude mice (CLEA Japan) by subcutaneous injection of 2.0×10^6 cells per mouse. At 7 to 14 days after the transplantation, the size of the engrafted tumor was measured, and the tumor volume was calculated according to the following formula. Tumor volume=major axis×minor axis×minor axis×(½)
Test subjects having an engrafted tumor with a tumor volume of approximately 100 mm^3 were selected and used in the experiment (6 subjects per group). A suspension of each test compound in a 0.5% methylcellulose solution (Wako Pure Chemical Industries) was orally administered to the mice for 14 days at the dose (mg/kg body weight, indicating the amount per dose) and the number of doses shown in Table 4. On the day before the start of the administration and the day before the completion of the administration, the tumor size was measured, and the tumor volume was calculated.
Percent tumor growth (T/C (%)) of the test compound administration group relative to the control administration group was calculated according to the following formula. T/C(%)=(tumor volume of the test compound administration group after the completion of the administration−tumor volume of the test compound administration group at the day before the start of the administration)/(tumor volume of the control administration group after the completion of the administration−tumor volume of the control administration group at the day before the start of the administration))×100

Experimental findings from US9957251B2 (Takeda Pharmaceutical Company Limited, priority 2014, dated 2018) are described below.

A word on the inhibition: it is the change of the read-out against control, counted positive when it falls.

T1 sequence (P49336 whole entry): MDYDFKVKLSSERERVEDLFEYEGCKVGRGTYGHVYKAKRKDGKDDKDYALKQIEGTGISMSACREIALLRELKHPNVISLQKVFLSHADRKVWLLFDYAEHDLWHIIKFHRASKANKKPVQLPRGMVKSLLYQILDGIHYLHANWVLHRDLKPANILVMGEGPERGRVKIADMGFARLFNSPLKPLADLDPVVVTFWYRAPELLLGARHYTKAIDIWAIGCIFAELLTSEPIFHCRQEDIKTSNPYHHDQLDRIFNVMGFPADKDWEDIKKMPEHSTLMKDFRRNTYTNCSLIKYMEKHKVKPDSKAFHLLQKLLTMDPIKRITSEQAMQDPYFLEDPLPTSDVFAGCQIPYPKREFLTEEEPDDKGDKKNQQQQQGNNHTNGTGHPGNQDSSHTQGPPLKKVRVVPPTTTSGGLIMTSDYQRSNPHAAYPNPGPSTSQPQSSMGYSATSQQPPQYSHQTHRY
T1 sequence (P24863 whole entry partner): as the sequence (P24863 whole entry partner) above

`O=C(/C=C/c1cncc(F)c1-c1cnn(C2CC2)c1)Nc1ccc2c(c1)CN(CC(F)(F)F)C2` [Example 324, (2E)-3-(4-(1-Cyclopropyl-1H-pyrazol-4-yl)-5-fluoropyridin-3-yl)-N-(2-(2,2,2-trifluoroethyl)-2,3-dihydro-1H-isoindol-5-yl)acrylamide]: the figures for the inhibition at 1 µM (at CDK8/CycC; in assay [1]; at CDK19 (CDC2L6/CycC)) were 104%, 58% and 100%, respectively. Besides, the response vs control in vivo at 30 mg/kg in assay [2] came to 29%.

Turning to `O=C(/C=C/c1cnccc1-c1cnn(C2CC2)c1)Nc1ccc(CN2CCOCC2)cc1` [Example 97, (2E)-3-(4-(1-Cyclopropyl-1H-pyrazol-4-yl)pyridin-3-yl)-N-(4-(morpholin-4-ylmethyl)phenyl)acrylamide], the inhibition at 1 µM at CDK8/CycC is 92%; in assay [1] it was 53%; at CDK19 (CDC2L6/CycC), 102%. In addition, in assay [2], the response vs control in vivo at 50 mg/kg is 37%.

Take `O=C(/C=C/c1cnccc1-c1cnn(C2CC2)c1)Nc1ccc(CN2CC(F)(F)C2)cc1` [Example 309, (2E)-3-(4-(1-Cyclopropyl-1H-pyrazol-4-yl)pyridin-3-yl)-N-(4-((3,3-difluoroazetidin-1-yl)methyl)phenyl)acrylamide]: the inhibition at 1 µM at CDK8/CycC is 105%; in assay [1], 58%; on CDK19 (CDC2L6/CycC) it was 101%. For the same compound, the response vs control in vivo at 30 mg/kg in assay [2] came to 51%.

Turning to `O=C(/C=C/c1cnccc1-c1cnn(C2CC2)c1)Nc1ccc(CN2CCOCC2)cc1F` [Example 194, (2E)-3-(4-(1-Cyclopropyl-1H-pyrazol-4-yl)pyridin-3-yl)-N-(2-fluoro-4-(morpholin-4-ylmethyl)phenyl)acrylamide], the figures for the inhibition at 1 µM (on CDK8/CycC; in assay [1]; at CDK19 (CDC2L6/CycC)) were 99%, 53% and 99%, respectively. The response vs control in vivo at 50 mg/kg in assay [2] came to 36%.

Turning to `O=C(/C=C/c1cncc(F)c1-c1cnn(C2CC2)c1)Nc1ccc(CN2CCOCC2)cc1F` [Example 273, (2E)-3-(4-(1-Cyclopropyl-1H-pyrazol-4-yl)-5-fluoropyridin-3-yl)-N-(2-fluoro-4-(morpholin-4-ylmethyl)phenyl)acrylamide], the inhibition at 1 µM at CDK8/CycC is 101%; in assay [1] it was 64%; at CDK19 (CDC2L6/CycC), 96%. Also, the response vs control in vivo at 50 mg/kg in assay [2] amounted to 36%.

In the case of `Cn1cc(-c2ccncc2/C=C/C(=O)Nc2ccc3c(c2)CN(CC(F)(F)F)C3)cn1` [Example 289, (2E)-3-(4-(1-Methyl-1H-pyrazol-4-yl)pyridin-3-yl)-N-(2-(2,2,2-trifluoroethyl)-2,3-dihydro-1H-isoindol-5-yl)acrylamide], the figures for the inhibition at 1 µM (at CDK8/CycC; in assay [1]; on CDK19 (CDC2L6/CycC)) were 98%, 64% and 102%, respectively. The response vs control in vivo at 50 mg/kg in assay [2] worked out at 31%.

Regarding `Cn1cc(-c2ccncc2/C=C/C(=O)Nc2ccc3c(c2)CN(CC(F)(F)F)CC3)cn1` [Example 216, (2E)-3-(4-(1-Methyl-1H-pyrazol-4-yl)pyridin-3-yl)-N-(2-(2,2,2-trifluoroethyl)-1,2,3,4-tetrahydroisoquinolin-7-yl)acrylamide], the inhibition at 1 µM on CDK8/CycC came to 102%; in assay [1] it was 59%; at CDK19 (CDC2L6/CycC), 100%. The response vs control in vivo at 50 mg/kg in assay [2] turned out to be 43%.
